Measured values: patent publication US8334403B1, “C-lysine conjugates as pH-controlled, light-activated reagents for double stranded DNA cleavage and associated methods” (Florida State University Research Foundation, Inc., priority 2005, dated 2012)
Read-outs that look alike come from different tables or passages of the source. Marks after values point to notes of the source that are not given here.

What was measured:
pBR322 plasmid DNA = test: Plasmid relaxation assay: DNA photocleavage of supercoiled plasmid under UV irradiation; assay type: biochemical; conditions: pH 6, 15 μM, 10 min of UV irradiation
Method: General information. ^1H, ^13C and ^19F NMR were collected on a Varian Gemini 300 MHz NMR spectrometer and a Bruker 300 MHz NMR spectrometer. Mass spectrometry data was collected on a Jeol JMS-600H. UV spectra were recorded on a Shimadzu UV-2100. Fluorescence spectra were obtained with SPEX FluoMax spectrofluorimeter using right-angle geometry. pH was adjusted with AB 15 plus pH meter (Accument) after standardization at 25° C. All buffers were prepared and pH-adjusted at room temperature (25° C.). Plasmid DNA Photocleavage. pBR322 plasmid DNA (4,361 b/p; from BioLabs Inc., 1 μg/μL solution in 10 mM Tris-HCl (pH 8.0), and 1 mM EDTA buffer) was diluted to a concentration of 0.01 μg/μL. The solution containing cleavage agent, DNA (30 μM/bp) in 20 mM sodium phosphate buffer was incubated for 1 hour at 30° C. Samples were placed on ice at a distance of 20 cm from 200 W Hg—Xe lamp (Spectra-Physics, Laser & Photonics Oriel Instruments with long pass filter with 324 nm cut-off wavelength). Electrophoretic Analysis. The gel electrophoresis was carried out in 1×TBE buffer at 80 V using Miligel FisherBiotech Horizontal Electrophoresis System. All gels were run on 1% agarose slab gels. Before loading, the DNA samples were mixed with 0.33 volume of tracking dye containing bromophenol blue (0.25%) and glycerol (30%) in water. After staining in ethidium bromide solution (2 μg/ml) for 1 hour, the gel was washed with water and pictures were taken with Polaroid 3000ISO type 667 film. The relative quantities of the supercoiled, nicked, and linear DNA were calculated by integrating the “area” of each spot by the image analyzer software Total/Lab (Nonlinear Dynamics Ltd., UK). The amount of supercoiled DNA was multiplied by factor of 1.4 to account for reduced ethidium bromide intercalation into supercoiled DNA. pH titration by ^1H-NMR. pH* of compound 8 (3 mM) solution in D2O containing 0.05 wt % 3-(trimethylsilyl)propionic-2,2,3,3-d4 acid, sodium salt (TSP-d4) was adjusted with 10 wt % DCI and NaOD in D2O at 25° C. under argon purged condition. Spectrometric determinations of pKa. pH of 10 μM of compound solution in H2O was adjusted with 10, 100 mM HCl (aq) and NaOH (aq) solution under argon purged condition. Excitation wavelength was 330 nm and polymethacrylate fluorimeter cuvettes were used. Absorbance and fluorescence titration with DNA. The concentrations of calf thymus DNA stock solution was determined spectophotometrically using the following molar absorptovity values: 1.32×10^4 M^−1 cm^−1 (per base pair) at 260 nm. All experiments were done in 20 mM sodium phosphate buffer at 25° C. and polymethacrylate fluorimeter cuvettes were used. The same amount of DNA was added to both sample and reference cuvettes during UV/Vis titration. Determination of excited state lifetimes. The concentration of compound solution was 10 μM in 20 mM sodium phosphate buffer. The photoluminescence lifetime measurements were conducted by exciting the samples with the output of a Nd:VO—4 (Spectra-Physics Vanguard, 2 W, 532 nm, 76 MHz, 10 ps) pumped R6G dye laser (Coherent 702-1). The output of the dye laser (600 nm, Rhodamine 6G) was cavity dumped at 1.9 MHz and frequency doubled using a BBO crystal to excite the fluorophore (the excitation wavelength used was 290 nm). Samples were excited with <1 mW power and the emission was collected at right angles onto a Chromex S3 500 is 0.5 m imaging monochromator with a 50 g/mm grating and 0.5 nm resolution. Output of the monochromator is focused into a Hamamatsu C5680 streak camera operating at a 20 ns window for the fluorophore. Intensity analysis was carried out by integrating the spectral profile in time on the streak camera. Lifetime analysis over 6-7 lifetimes of the fluorophore was conducted by binning the photoluminescence intensity collected on the streak camera over a 20 nm spectral window at the centroid value of the emission of the fluorophore. Ethidium bromide displacement. […]

[1] = Fluorometric (emission) determination of pKa; assay type: physicochemical; conditions: emission; α-amino group (4, 6), ε-amino group (7)
Method: (§1) General information. ^1H, ^13C and ^19F NMR were collected on a Varian Gemini 300 MHz NMR spectrometer and a Bruker 300 MHz NMR spectrometer. Mass spectrometry data was collected on a Jeol JMS-600H. UV spectra were recorded on a Shimadzu UV-2100. Fluorescence spectra were obtained with SPEX FluoMax spectrofluorimeter using right-angle geometry. pH was adjusted with AB 15 plus pH meter (Accument) after standardization at 25° C. All buffers were prepared and pH-adjusted at room temperature (25° C.). Plasmid DNA Photocleavage. pBR322 plasmid DNA (4,361 b/p; from BioLabs Inc., 1 μg/μL solution in 10 mM Tris-HCl (pH 8.0), and 1 mM EDTA buffer) was diluted to a concentration of 0.01 μg/μL. The solution containing cleavage agent, DNA (30 μM/bp) in 20 mM sodium phosphate buffer was incubated for 1 hour at 30° C. Samples were placed on ice at a distance of 20 cm from 200 W Hg—Xe lamp (Spectra-Physics, Laser & Photonics Oriel Instruments with long pass filter with 324 nm cut-off wavelength). Electrophoretic Analysis. The gel electrophoresis was carried out in 1×TBE buffer at 80 V using Miligel FisherBiotech Horizontal Electrophoresis System. All gels were run on 1% agarose slab gels. Before loading, the DNA samples were mixed with 0.33 volume of tracking dye containing bromophenol blue (0.25%) and glycerol (30%) in water. After staining in ethidium bromide solution (2 μg/ml) for 1 hour, the gel was washed with water and pictures were taken with Polaroid 3000ISO type 667 film. The relative quantities of the supercoiled, nicked, and linear DNA were calculated by integrating the “area” of each spot by the image analyzer software Total/Lab (Nonlinear Dynamics Ltd., UK). The amount of supercoiled DNA was multiplied by factor of 1.4 to account for reduced ethidium bromide intercalation into supercoiled DNA. pH titration by ^1H-NMR. pH* of compound 8 (3 mM) solution in D2O containing 0.05 wt % 3-(trimethylsilyl)propionic-2,2,3,3-d4 acid, sodium salt (TSP-d4) was adjusted with 10 wt % DCI and NaOD in D2O at 25° C. under argon purged condition. Spectrometric determinations of pKa. pH of 10 μM of compound solution in H2O was adjusted with 10, 100 mM HCl (aq) and NaOH (aq) solution under argon purged condition. Excitation wavelength was 330 nm and polymethacrylate fluorimeter cuvettes were used. Absorbance and fluorescence titration with DNA. The concentrations of calf thymus DNA stock solution was determined spectophotometrically using the following molar absorptovity values: 1.32×10^4 M^−1 cm^−1 (per base pair) at 260 nm. All experiments were done in 20 mM sodium phosphate buffer at 25° C. and polymethacrylate fluorimeter cuvettes were used. The same amount of DNA was added to both sample and reference cuvettes during UV/Vis titration. Determination of excited state lifetimes. The concentration of compound solution was 10 μM in 20 mM sodium phosphate buffer. The photoluminescence lifetime measurements were conducted by exciting the samples with the output of a Nd:VO—4 (Spectra-Physics Vanguard, 2 W, 532 nm, 76 MHz, 10 ps) pumped R6G dye laser (Coherent 702-1). The output of the dye laser (600 nm, Rhodamine 6G) was cavity dumped at 1.9 MHz and frequency doubled using a BBO crystal to excite the fluorophore (the excitation wavelength used was 290 nm). Samples were excited with <1 mW power and the emission was collected at right angles onto a Chromex S3 500 is 0.5 m imaging monochromator with a 50 g/mm grating and 0.5 nm resolution. […]

[2] = UV-absorption titration determination of pKa; assay type: physicochemical
Method: as §1

[3] = pH (pD) titration by 1H-NMR in D2O; assay type: physicochemical; conditions: uncorrected
Method: General information. ^1H, ^13C and ^19F NMR were collected on a Varian Gemini 300 MHz NMR spectrometer and a Bruker 300 MHz NMR spectrometer. Mass spectrometry data was collected on a Jeol JMS-600H. UV spectra were recorded on a Shimadzu UV-2100. Fluorescence spectra were obtained with SPEX FluoMax spectrofluorimeter using right-angle geometry. pH was adjusted with AB 15 plus pH meter (Accument) after standardization at 25° C. All buffers were prepared and pH-adjusted at room temperature (25° C.). Plasmid DNA Photocleavage. pBR322 plasmid DNA (4,361 b/p; from BioLabs Inc., 1 μg/μL solution in 10 mM Tris-HCl (pH 8.0), and 1 mM EDTA buffer) was diluted to a concentration of 0.01 μg/μL. The solution containing cleavage agent, DNA (30 μM/bp) in 20 mM sodium phosphate buffer was incubated for 1 hour at 30° C. […] The relative quantities of the supercoiled, nicked, and linear DNA were calculated by integrating the “area” of each spot by the image analyzer software Total/Lab (Nonlinear Dynamics Ltd., UK). […] Absorbance and fluorescence titration with DNA. The concentrations of calf thymus DNA stock solution was determined spectophotometrically using the following molar absorptovity values: 1.32×10^4 M^−1 cm^−1 (per base pair) at 260 nm. […]

[4] = published literature; cited from earlier work
DNA = conditions: cited from earlier work

**Q.** For `Cl.NCCCCCC(=O)Nc1ccc(C#Cc2c(F)c(F)nc(F)c2F)cc1` [Compound 7, 6-Aminohexanoic acid [4-(2,3,5,6-tetrafluoro-pyridin-4-ylethynyl)-phenyl]-amide Hydrochloride], which ds-cleavage (pBR322 plasmid DNA) is on record?
**A.** do not produce any ds-cleavage

**Q.** What about the pKa1 [1] of the same compound?
**A.** 10.8

**Q.** What about the “pKa for the ε-ammonium group lower by absorption than derived from the fluorescence changes” value ([2]; absorption vs fluorescence) of the same compound?
**A.** > 1 pKa units

**Q.** What about the pKa1 ([2]; absorption, α-amino group (4, 6), ε-amino group (7)) of the same compound?
**A.** 9.4

**Q.** What does the source list for `Cl.Cl.NCCCC[C@H](N)C(=O)Nc1ccccc1` [Compound 8, (S)-2,6-Diaminohexanoic acid phenyl-amide dihydrochloride]?
**A.** pKa1 (α-amino group) [3]: 7.56; pKa2 (ε-amino group) [3]: 10.75

**Q.** Which results are given for `NCCCC[C@H](N)C(=O)O` [Lysine]?
**A.** pKa1 [4]: 8.95^b; pKa2 [4]: 10.53^b

**Q.** With `COc1cc(CCN)c2c(c1OC)SS[S+]2[O-]` (stereo not shown) [Varacin C] as the compound, how does the “extent of single stranded (ss) DNA cleavage” value (DNA; pH 5.5, 5 μM antibiotic loading) read?
**A.** 47%

**Q.** And the “extent of single stranded (ss) DNA cleavage” value (DNA; pH 7)?
**A.** 23%
